Results from BindingDB's records for PubMed 11714898 (Creighton University, 2001).
Residues, ends and D or L forms follow the SMILES beside them.

Columns and labels:
[1] = target: T1, Receptor activity-modifying protein 1 (Sus scrofa, UniProt Q867C0)
T1 sequence (Q867C0 whole entry): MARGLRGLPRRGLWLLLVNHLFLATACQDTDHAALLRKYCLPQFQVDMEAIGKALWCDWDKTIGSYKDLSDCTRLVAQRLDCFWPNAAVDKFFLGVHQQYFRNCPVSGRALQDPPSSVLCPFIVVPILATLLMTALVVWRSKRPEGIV

[2] = target: Calcitonin gene-related peptide type 1 receptor (Sus scrofa, UniProt Q8WN93)
Sequence of Calcitonin gene-related peptide type 1 receptor (Q8WN93 whole entry): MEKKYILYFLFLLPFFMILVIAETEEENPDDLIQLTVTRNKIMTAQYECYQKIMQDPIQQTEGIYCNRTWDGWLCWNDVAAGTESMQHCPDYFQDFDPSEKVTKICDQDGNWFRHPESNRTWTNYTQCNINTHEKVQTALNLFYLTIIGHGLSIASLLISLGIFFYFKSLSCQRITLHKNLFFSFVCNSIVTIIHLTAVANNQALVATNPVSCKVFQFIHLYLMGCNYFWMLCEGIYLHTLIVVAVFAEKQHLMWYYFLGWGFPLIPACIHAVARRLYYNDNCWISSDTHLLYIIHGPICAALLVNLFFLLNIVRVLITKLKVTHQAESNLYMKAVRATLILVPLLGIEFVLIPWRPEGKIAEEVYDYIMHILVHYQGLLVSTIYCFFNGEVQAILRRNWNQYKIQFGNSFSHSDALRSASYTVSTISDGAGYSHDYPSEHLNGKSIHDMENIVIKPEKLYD

Ki [1] [nM] | Ki [2] [nM] | SMILES
5.7 |  | CC(C)C[C@H](NC(=O)CNC(=O)[C@H](C)NC(=O)[C@H](CC(C)C)NC(=O)[C@H](CCCNC(=N)N)NC(=O)[C@H](Cc1cnc[nH]1)NC(=O)[C@@H](NC(=O)[C@@H](N)C(C)C)[C@@H](C)O)C(=O)N[C@@H](CC(C)C)C(=O)N[C@@H](CO)C(=O)N[C@@H](CCCNC(=N)N)C(=O)N[C@@H](CO)C(=O)NCC(=O)NCC(=O)N[C@H](C(=O)N[C@H](C(=O)N[C@@H](CCCCN)C(=O)N[C@@H](CC(N)=O)C(=O)N[C@@H](CC(N)=O)C(=O)N[C@@H](Cc1ccccc1)C(=O)N[C@H](C(=O)N1CCC[C@H]1C(=O)N[C@H](C(=O)N[C@@H](CC(N)=O)C(=O)N[C@H](C(=O)NCC(=O)N[C@@H](CO)C(=O)N[C@@H](CCCCN)C(=O)N[C@@H](C)C(=O)N[C@@H](Cc1ccccc1)C(N)=O)C(C)C)[C@@H](C)O)C(C)C)C(C)C)C(C)C
1020 | 500 | CC(C)C[C@H](NC(=O)CNC(=O)[C@H](C)NC(=O)[C@H](CC(C)C)NC(=O)[C@H](CCCN=C(N)N)NC(=O)[C@H](Cc1cnc[nH]1)NC(=O)[C@@H](NC(=O)[C@@H](N)C(C)C)[C@@H](C)O)C(=O)N[C@@H](CC(C)C)C(=O)N[C@@H](CO)C(=O)N[C@@H](CCCN=C(N)N)C(=O)N[C@@H](CO)C(=O)NCC(=O)NCC(=O)N[C@H](C(=O)N[C@H](C(=O)N[C@@H](CCCCN)C(=O)N[C@@H](CC(N)=O)C(=O)N[C@@H](CC(N)=O)C(=O)N[C@@H](Cc1ccccc1)C(=O)N[C@H](C(=O)N1CCC[C@H]1C(=O)N[C@H](C(=O)N[C@@H](CC(N)=O)C(=O)N[C@H](C(=O)NCC(=O)N[C@@H](CO)C(=O)N[C@@H](CCCCN)C(=O)N[C@@H](C)C(=O)N[C@@H](C)C(N)=O)C(C)C)[C@@H](C)O)C(C)C)C(C)C)C(C)C [[Ala37]h alpha-CGRP8-37] (H-VTHRLAGLLSRSGGVVKNNFVPTNVGSKAA-NH2)
37.9 | 32.7 | CC(C)C[C@H](NC(=O)CNC(=O)[C@H](C)NC(=O)[C@H](CC(C)C)NC(=O)[C@H](CCCN=C(N)N)NC(=O)[C@H](Cc1cnc[nH]1)NC(=O)[C@@H](NC(=O)[C@@H](N)C(C)C)[C@@H](C)O)C(=O)N[C@@H](CC(C)C)C(=O)N[C@@H](CO)C(=O)N[C@@H](CCCN=C(N)N)C(=O)N[C@@H](CO)C(=O)NCC(=O)NCC(=O)N[C@H](C(=O)N[C@H](C(=O)N[C@@H](CCCCN)C(=O)N[C@@H](CC(N)=O)C(=O)N[C@@H](CC(N)=O)C(=O)N[C@@H](Cc1ccccc1)C(=O)N[C@H](C(=O)N1CCC[C@H]1C(=O)N[C@H](C(=O)N[C@@H](CC(N)=O)C(=O)N[C@H](C(=O)NCC(=O)N[C@@H](CO)C(=O)N[C@@H](CCCCN)C(=O)N[C@@H](C)C(=O)N[C@@H](CC1CCCCC1)C(N)=O)C(C)C)[C@@H](C)O)C(C)C)C(C)C)C(C)C [[Cha37]h alpha-CGRP8-37] (HELM PEPTIDE1{V.T.H.R.L.A.G.L.L.S.R.S.G.G.V.V.K.N.N.F.V.P.T.N.V.G.S.K.A.[Cha].[am]}$$$$V2.0)
32 | 38.4 | CC(=O)NCSC[C@H](NC(=O)[C@H](C)N)C(=O)N[C@@H](CC(=O)O)C(=O)N[C@H](C(=O)N[C@@H](C)C(=O)N[C@H](C(=O)N[C@@H](CSCNC(C)=O)C(=O)N[C@H](C(=O)N[C@H](C(=O)N[C@@H](Cc1cnc[nH]1)C(=O)N[C@@H](CCCNC(=N)N)C(=O)N[C@@H](CC(C)C)C(=O)N[C@@H](C)C(=O)NCC(=O)N[C@@H](CC(C)C)C(=O)N[C@@H](CC(C)C)C(=O)N[C@@H](CO)C(=O)N[C@@H](CCCNC(=N)N)C(=O)N[C@@H](CO)C(=O)NCC(=O)NCC(=O)N[C@H](C(=O)N[C@H](C(=O)N[C@@H](CCCCN)C(=O)N[C@@H](CC(N)=O)C(=O)N[C@@H](CC(N)=O)C(=O)N[C@@H](Cc1ccccc1)C(=O)N[C@H](C(=O)N1CCC[C@H]1C(=O)N[C@H](C(=O)N[C@@H](CC(N)=O)C(=O)N[C@H](C(=O)NCC(=O)N[C@@H](CO)C(=O)N[C@@H](CCCCN)C(=O)N[C@@H](C)C(=O)N[C@@H](Cc1ccccc1)C(N)=O)C(C)C)[C@@H](C)O)C(C)C)C(C)C)C(C)C)[C@@H](C)O)C(C)C)[C@@H](C)O)[C@@H](C)O [[Cys(ACM)2,7]h alpha-CGRP]
15.2 | 21 | CC(C)C[C@H](NC(=O)CNC(=O)[C@H](C)NC(=O)[C@H](CC(C)C)NC(=O)[C@H](CCCNC(=N)N)NC(=O)[C@H](Cc1cnc[nH]1)NC(=O)[C@@H](NC(=O)[C@@H](NC(=O)[C@@H]1NC(=O)[C@H]([C@@H](C)O)NC(=O)[C@H](C)NC(=O)[C@H]([C@@H](C)O)NC(=O)[C@H](CC(=O)O)NC(=O)[C@H](NC(=O)[C@H](C)N)C(C)(C)SSC1(C)C)C(C)C)[C@@H](C)O)C(=O)N[C@@H](CC(C)C)C(=O)N[C@@H](CO)C(=O)N[C@@H](CCCNC(=N)N)C(=O)N[C@@H](CO)C(=O)NCC(=O)NCC(=O)N[C@H](C(=O)N[C@H](C(=O)N[C@@H](CCCCN)C(=O)N[C@@H](CC(N)=O)C(=O)N[C@@H](CC(N)=O)C(=O)N[C@@H](Cc1ccccc1)C(=O)N[C@H](C(=O)N1CCC[C@H]1C(=O)N[C@H](C(=O)N[C@@H](CC(N)=O)C(=O)N[C@H](C(=O)NCC(=O)N[C@@H](CO)C(=O)N[C@@H](CCCCN)C(=O)N[C@@H](C)C(=O)N[C@@H](Cc1ccccc1)C(N)=O)C(C)C)[C@@H](C)O)C(C)C)C(C)C)C(C)C [[D-Pen2,7]h alpha-CGRP]
1.3 |  | CC(=O)N[C@H](C(=O)N[C@H](C(=O)N[C@@H](Cc1cnc[nH]1)C(=O)N[C@@H](CCCN=C(N)N)C(=O)N[C@@H](CC(C)C)C(=O)N[C@@H](C)C(=O)NCC(=O)N[C@@H](CC(C)C)C(=O)N[C@@H](CC(C)C)C(=O)N[C@@H](CO)C(=O)N[C@@H](CCCN=C(N)N)C(=O)N[C@@H](CO)C(=O)NCC(=O)NCC(=O)N[C@H](C(=O)N[C@H](C(=O)N[C@@H](CCCCN)C(=O)N[C@@H](CC(N)=O)C(=O)N[C@@H](CC(N)=O)C(=O)N[C@@H](Cc1ccccc1)C(=O)N[C@H](C(=O)N1CCC[C@H]1C(=O)N[C@H](C(=O)N[C@@H](CC(N)=O)C(=O)N[C@H](C(=O)NCC(=O)N[C@@H](CO)C(=O)N[C@@H](CCCCN)C(=O)N[C@@H](C)C(=O)N[C@@H](Cc1ccccc1)C(N)=O)C(C)C)[C@@H](C)O)C(C)C)C(C)C)C(C)C)[C@@H](C)O)C(C)C [[N-acetyl]h alpha-CGRP8-37]
0.072 | 0.27 | CC(C)C[C@H](NC(=O)CNC(=O)[C@H](C)NC(=O)[C@H](CC(C)C)NC(=O)[C@H](CCCN=C(N)N)NC(=O)[C@H](Cc1cnc[nH]1)NC(=O)[C@@H](NC(=O)[C@@H](NCc1ccc(O)cc1)C(C)C)[C@@H](C)O)C(=O)N[C@@H](CC(C)C)C(=O)N[C@@H](CO)C(=O)N[C@@H](CCCN=C(N)N)C(=O)N[C@@H](CO)C(=O)NCC(=O)NCC(=O)N[C@H](C(=O)N[C@H](C(=O)N[C@@H](CCCCN)C(=O)N[C@@H](CC(N)=O)C(=O)N[C@@H](CC(N)=O)C(=O)N[C@@H](Cc1ccccc1)C(=O)N[C@H](C(=O)N1CCC[C@H]1C(=O)N[C@H](C(=O)N[C@@H](CC(N)=O)C(=O)N[C@H](C(=O)NCC(=O)N[C@@H](CO)C(=O)N[C@@H](CCCCN)C(=O)N[C@@H](C)C(=O)N[C@@H](Cc1ccccc1)C(N)=O)C(C)C)[C@@H](C)O)C(C)C)C(C)C)C(C)C [[N-benzol]h alpha-CGRP8-37]
5.5 | 9 | CC(C)C[C@H](NC(=O)[C@H](CCCNC(=N)N)NC(=O)[C@H](Cc1cnc[nH]1)NC(=O)[C@@H](NC(=O)[C@@H](NC(=O)[C@@H]1CSSC[C@H](NC(=O)[C@H](C)N)C(=O)N[C@@H](CC(=O)O)C(=O)N[C@@H]([C@@H](C)O)C(=O)N[C@@H](C)C(=O)N[C@@H]([C@@H](C)O)C(=O)N1)C(C)C)[C@@H](C)O)C(=O)N[C@@H](C)C(=O)N1CCC[C@H]1C(=O)N[C@@H](CC(C)C)C(=O)N[C@@H](CC(C)C)C(=O)N[C@@H](CO)C(=O)N[C@@H](CCCNC(=N)N)C(=O)N[C@@H](CO)C(=O)NCC(=O)NCC(=O)N[C@H](C(=O)N[C@H](C(=O)N[C@@H](CCCCN)C(=O)N[C@@H](CC(N)=O)C(=O)N[C@@H](CC(N)=O)C(=O)N[C@@H](Cc1ccccc1)C(=O)N[C@H](C(=O)N1CCC[C@H]1C(=O)N[C@H](C(=O)N[C@@H](CC(N)=O)C(=O)N[C@H](C(=O)NCC(=O)N[C@@H](CO)C(=O)N[C@@H](CCCCN)C(=O)N[C@@H](C)C(=O)N[C@@H](Cc1ccccc1)C(N)=O)C(C)C)[C@@H](C)O)C(C)C)C(C)C)C(C)C [[Pro14]h alpha-CGRP] (HELM PEPTIDE1{A.C.D.T.A.T.C.V.T.H.R.L.A.P.L.L.S.R.S.G.G.V.V.K.N.N.F.V.P.T.N.V.G.S.K.A.F.[am]}$PEPTIDE1,PEPTIDE1,2:R3-7:R3$$$V2.0)
118 | 50.7 | CC(C)[C@H](NC(=O)[C@H](CC(N)=O)NC(=O)[C@@H](NC(=O)[C@@H]1CCCN1C(=O)[C@@H](NC(=O)[C@@H](N)Cc1ccccc1)C(C)C)[C@@H](C)O)C(=O)NCC(=O)N1CCC[C@H]1C(=O)N[C@@H](Cc1ccccc1)C(=O)N[C@@H](C)C(=O)N[C@@H](Cc1ccccc1)C(N)=O [[Pro34,Phe35]h alpha-CGRP27-37] (H-FVPTNVGPFAF-NH2)
0.08 |  | CC(C)C[C@H](NC(=O)CNC(=O)[C@H](C)NC(=O)[C@H](CC(C)C)NC(=O)[C@H](CCCNC(=N)N)NC(=O)[C@H](Cc1cnc[nH]1)NC(=O)[C@@H](NC(=O)[C@@H](NC(=O)[C@@H]1CSSC[C@H](NC(=O)[C@H](C)N)C(=O)N[C@@H](CC(=O)O)C(=O)N[C@@H]([C@@H](C)O)C(=O)N[C@@H](C)C(=O)N[C@@H]([C@@H](C)O)C(=O)N1)C(C)C)[C@@H](C)O)C(=O)N[C@@H](CC(C)C)C(=O)N[C@@H](CO)C(=O)N[C@@H](CCCNC(=N)N)C(=O)N[C@@H](CO)C(=O)NCC(=O)NCC(=O)N[C@H](C(=O)N[C@H](C(=O)N[C@@H](CCCCN)C(=O)N[C@@H](CC(N)=O)C(=O)N[C@@H](CC(N)=O)C(=O)N[C@@H](Cc1ccccc1)C(=O)N[C@H](C(=O)N1CCC[C@H]1C(=O)N[C@H](C(=O)N[C@@H](CC(N)=O)C(=O)N[C@H](C(=O)NCC(=O)N[C@@H](CO)C(=O)N[C@@H](CCCCN)C(=O)N[C@@H](C)C(=O)N[C@@H](Cc1ccccc1)C(N)=O)C(C)C)[C@@H](C)O)C(C)C)C(C)C)C(C)C [h alpha-CGRP]
